One test concerns the target human recombinant Top1 (Homo sapiens (Human), UniProt P11387). The test can be described thus: Topoisomerase I-mediated DNA cleavage reactions. The following applies: for Top1, compound-induced DNA cleavage due to Top1 inhibition: semiquantitative scale relative to 1 μM camptothecin (90) or MJ-III-65 (91).
For the next test, the target named is recombinant human Tdp1 (Homo sapiens (Human), UniProt Q9NUW8). The test can be described thus: Gel-based assay measuring the inhibition of recombinant Tdp1. The settings on record: for Tdp1 inhibitory activity (in words): recombinant Tdp1; for IC50: determined by duplicate, read-out: Tdp1 (semiquantitative IC50 scale). The class given is biochemical.
Chain of recombinant human Tdp1 (Q9NUW8 whole entry): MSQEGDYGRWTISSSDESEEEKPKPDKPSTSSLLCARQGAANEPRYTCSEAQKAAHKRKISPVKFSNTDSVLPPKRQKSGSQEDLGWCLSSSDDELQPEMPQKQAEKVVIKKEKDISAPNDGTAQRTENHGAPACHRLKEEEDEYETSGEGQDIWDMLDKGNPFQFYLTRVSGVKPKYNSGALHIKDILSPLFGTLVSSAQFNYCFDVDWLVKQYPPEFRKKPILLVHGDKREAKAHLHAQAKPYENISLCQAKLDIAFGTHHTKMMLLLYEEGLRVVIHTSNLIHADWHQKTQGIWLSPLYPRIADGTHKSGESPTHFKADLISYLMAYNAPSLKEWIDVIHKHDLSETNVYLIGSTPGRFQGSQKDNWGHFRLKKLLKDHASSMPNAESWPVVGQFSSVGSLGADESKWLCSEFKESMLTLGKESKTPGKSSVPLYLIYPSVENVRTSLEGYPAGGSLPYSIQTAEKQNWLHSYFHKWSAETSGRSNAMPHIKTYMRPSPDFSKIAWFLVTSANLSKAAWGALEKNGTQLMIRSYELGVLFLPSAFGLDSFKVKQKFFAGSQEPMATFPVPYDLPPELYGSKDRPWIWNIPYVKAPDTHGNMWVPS

Chain of human recombinant Top1 (P11387 whole entry): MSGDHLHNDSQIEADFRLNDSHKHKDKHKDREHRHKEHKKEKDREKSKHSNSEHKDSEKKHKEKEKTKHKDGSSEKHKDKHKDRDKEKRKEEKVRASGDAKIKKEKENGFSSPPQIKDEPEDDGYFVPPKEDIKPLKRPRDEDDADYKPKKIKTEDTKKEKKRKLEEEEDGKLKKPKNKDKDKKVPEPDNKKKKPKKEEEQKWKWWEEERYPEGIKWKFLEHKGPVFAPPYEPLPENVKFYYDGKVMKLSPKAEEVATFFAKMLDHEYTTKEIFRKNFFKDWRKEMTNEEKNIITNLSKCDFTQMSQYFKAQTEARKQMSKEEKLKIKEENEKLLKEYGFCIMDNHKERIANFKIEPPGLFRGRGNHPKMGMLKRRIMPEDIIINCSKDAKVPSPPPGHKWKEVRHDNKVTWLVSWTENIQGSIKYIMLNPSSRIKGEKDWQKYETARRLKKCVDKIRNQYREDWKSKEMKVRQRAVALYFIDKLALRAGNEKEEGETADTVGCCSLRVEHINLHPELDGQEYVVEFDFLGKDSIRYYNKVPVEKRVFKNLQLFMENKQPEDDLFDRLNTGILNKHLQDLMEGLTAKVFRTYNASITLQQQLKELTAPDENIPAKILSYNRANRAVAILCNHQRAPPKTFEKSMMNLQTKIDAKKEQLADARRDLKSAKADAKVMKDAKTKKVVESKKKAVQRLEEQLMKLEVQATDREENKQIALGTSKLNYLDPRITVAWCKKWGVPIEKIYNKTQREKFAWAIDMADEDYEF
Experimental for human recombinant Top1: Topoisomerase I-Mediated DNA Cleavage Reactions.
DNA cleavage reactions were prepared as previously reported with the exception of the DNA substrate. […] Unincorporated [^32P]dGTP was removed using mini Quick Spin DNA columns (Roche, Indianapolis, Ind.), and the eluate containing the 3′-end-labeled DNA substrate was collected. Approximately 2 nM radiolabeled DNA substrate was incubated with recombinant Top1 in 20 μL of reaction buffer [10 mM Tris-HCl (pH 7.5), 50 mM KCl, 5 mM MgCl2, 0.1 mM EDTA, and 15 μg/mL BSA] at 25° C. for 20 min in the presence of various concentrations of compounds. The reactions were terminated by adding SDS (0.5% final concentration) followed by the addition of two volumes of loading dye (80% formamide, 10 mM sodium hydroxide, 1 mM sodium EDTA, 0.1% xylene cyanol, and 0.1% bromphenol blue). Aliquots of each reaction mixture were subjected to 20% denaturing PAGE. Gels were dried and visualized by using a phosphoimager and ImageQuant software (Molecular Dynamics).
Top1 reactions were performed as recently described. […] The reactions were terminated by adding SDS (0.5% final concentration) followed by the addition of two volumes of loading dye (80% formamide, 10 mM sodium hydroxide, 1 mM sodium EDTA, 0.1% xylene cyanol, and 0.1% bromphenol blue). Reactions were subjected to 20% denaturing PAGE. Gels were dried and visualized by using a Typhoon 8600 and ImageQuant software (Molecular Dynamics).
Experimental for recombinant human Tdp1: Tdp1 inhibitory activity was measured by the drug's ability to inhibit the hydrolysis of the phosphodiester linkage between tyrosine and the 3′-end of the DNA substrate, and to prevent the generation of an oligonucleotide with a free 3′-phosphate (N14P). Therefore, the disappearance of the gel band for N14P indicated Tdp1 inhibition.
Gel-based Assay Measuring the Inhibition of Recombinant Tdp1.
A 5′-[^32P]-labeled single-stranded DNA oligonucleotide containing a 3′-phosphotyrosine (N14Y) was generated as described by Dexheimer et al. The DNA substrate was then incubated with 5 pM recombinant Tdp1 in the absence or presence of inhibitor for 15 min at room temperature in a buffer containing 50 mM Tris HCl, pH 7.5, 80 mM KCl, 2 mM EDTA, 1 mM DTT, 40 μg/ml BSA and 0.01% Tween-20. […] Gel images were scanned using a Typhoon 8600 (GE Healthcare) and densitometric analyses were performed using the ImageQuant software (GE Healthcare).

For the compound `CS(=O)(=O)NCCCCCCCn1c2c(c3ccccc3c1=O)C(=O)c1ccccc1-2` [Compound 85], on human recombinant Top1, the “Top1 inhibition (in words)” value is recorded as “active” and the “Top1, compound-induced DNA cleavage due to Top1 inhibition” value (“Top1 … to Top1 inhibition” below) is recorded as “+++”. In addition, the “suppression of Top1-mediated DNA cleavage at high drug concentration” value at human recombinant Top1 (high concentration of 100 μM) is on record as “complete suppression”.
As to `COc1ccc2c(c1)-c1c(c3ccc([N+](=O)[O-])cc3c(=O)n1CCCN=[N+]=[N-])C2=O` [Compound 50 of (B), 6-(3-Azidopropyl)-5,6-dihydro-8-methoxy-3-nitro-5,11-dioxo-11H-indeno[1,2-c]isoquinoline], the “Top1 … to Top1 inhibition” value on human recombinant Top1 was “+”. Also, the “Tdp1 inhibitory activity (in words)” value on recombinant human Tdp1 is “very weak or inactive”.
In the same order, the values of `COc1ccc2c(c1)-c1c(c3ccc([N+](=O)[O-])cc3c(=O)n1CCCBr)C2=O` [Compound 49 of (B), 6-(3-Bromopropyl)-5,6-dihydro-8-methoxy-3-nitro-5,11-dioxo-11H-indeno[1,2-c]isoquinoline] are “+++” and “very weak or inactive”.
Consider `CC(C)(C)OC(=O)NCCCn1c2c(c3ccc(NC(=O)CCCCC(=O)O)cc3c1=O)C(=O)c1ccccc1-2` [Compound 31 of (B), 6-[(6-(3-((tert-Butoxycarbonyl)amino)propyl)-5,11-dioxo-6,11-dihydro-5H-indeno[1,2-c]isoquinolin-3-yl)amino]-6-oxohexanoic Acid], for which the “Top1 … to Top1 inhibition” value on human recombinant Top1 is on record as “(+)”.
A word on the IC50: it is the concentration needed to halve the response being measured. For `CC(C)(C)OC(=O)NCCCn1c2c(c3ccc(NC(=O)CCC(=O)O)cc3c1=O)C(=O)c1ccccc1-2` [Compound 29 of (B), 4-[(6-(3-((tert-Butoxycarbonyl)amino)propyl)-5,11-dioxo-6,11-dihydro-5H-indeno[1,2-c]isoquinolin-3-yl)amino]-4-oxobutanoic Acid], at human recombinant Top1, the “Top1 … to Top1 inhibition” value is on record as “(+)”. For the same compound, the IC50 at recombinant human Tdp1 is 37 to 111 µM.
With `COC(=O)CCCC(=O)Nc1ccc2c3c(n(CCCNC(=O)OC(C)(C)C)c(=O)c2c1)-c1ccccc1C3=O` [Compound 20 of (B), Methyl 5-[(6-(3-((tert-Butoxycarbonyl)amino)propyl)-5,11-dioxo-6,11-dihydro-5H-indeno[1,2-c]isoquinolin-3-yl)amino]-5-oxopentanoate], at human recombinant Top1, the “Top1 … to Top1 inhibition” value was 0. Further, the IC50 on recombinant human Tdp1 was > 111 µM.
Regarding `COC(=O)CCCC(=O)Nc1ccc2c3c(n(C)c(=O)c2c1)-c1ccccc1C3=O` [Compound 12 of (B), Methyl 5-[(6-Methyl-5,11-dioxo-6,11-dihydro-5H-indeno[1,2-c]isoquinolin-3-yl)amino]-5-oxopentanoate], the “Top1 … to Top1 inhibition” value on human recombinant Top1 was “+”.
Regarding `N#Cc1ccc2c3c(n(CCCN4CCOCC4)c(=O)c2c1)-c1ccccc1C3=O` [Compound 73], the “Top1 … to Top1 inhibition” value on human recombinant Top1 was “++”. In addition, on recombinant human Tdp1, the IC50 is > 111 µM.
Consider `COC(=O)C(=O)Nc1ccc2c3c(n(C)c(=O)c2c1)-c1ccccc1C3=O` [Compound 9 of (B), Methyl 2-[(6-Methyl-5,11-dioxo-6,11-dihydro-5H-indeno[1,2-c]isoquinolin-3-yl)amino]-2-oxoacetate], for which, at human recombinant Top1, the “Top1 … to Top1 inhibition” value stood at 0.
As for `Cl.NCCCn1c2c(c3ccc(NC(=O)C(=O)O)cc3c1=O)C(=O)c1ccccc1-2` [Compound 32 of (B), 2-[(6-(3-Aminopropyl)-5,11-dioxo-6,11-dihydro-5H-indeno[1,2-c]isoquinolin-3-yl)amino]-2-oxoacetic Acid Hydrochloride], the “Top1 … to Top1 inhibition” value on human recombinant Top1 is “+”.
The same measure, in the same setting: the same measure for `Cl.NCCCn1c2c(c3ccc(NC(=O)CCCC(=O)O)cc3c1=O)C(=O)c1ccccc1-2` [Compound 35 of (B), 5-[(6-(3-Aminopropyl)-5,11-dioxo-6,11-dihydro-5H-indeno[1,2-c]isoquinolin-3-yl)amino]-5-oxopentanoic Acid Hydrochloride]: 0; for `COC(=O)CCCCC(=O)Nc1ccc2c3c(n(C)c(=O)c2c1)-c1ccccc1C3=O` [Compound 13 of (B), Methyl 6-[(6-Methyl-5,11-dioxo-6,11-dihydro-5H-indeno[1,2-c]isoquinolin-3-yl)amino]-6-oxohexanoate]: 0.
Regarding `Cc1ccc(S(=O)(=O)OCCCCCCCn2c3c(c4ccccc4c2=O)C(=O)c2ccccc2-3)cc1` [Compound 29, 7-(5,11-Dioxo-5H-indeno[1,2-c]isoquinolin-6(11H)-yl)heptyl-4-methyl-benzenesulfonate], the “Tdp1 inhibitory activity (in words)” value at recombinant human Tdp1 is given as “weakly active”.
Regarding `Cl.NCCCn1c2c(c3ccc(NC(=O)CC(=O)O)cc3c1=O)C(=O)c1ccccc1-2` [Compound 33 of (B), 3-[(6-(3-Aminopropyl)-5,11-dioxo-6,11-dihydro-5H-indeno[1,2-c]isoquinolin-3-yl)amino]-3-oxopropanoic Acid Hydrochloride], on human recombinant Top1, the “Top1 … to Top1 inhibition” value was “+”.
Still for that read-out and setting: then `COC(=O)CC(=O)Nc1ccc2c3c(n(C)c(=O)c2c1)-c1ccccc1C3=O` [Compound 10 of (B), Methyl 3-[(6-Methyl-5,11-dioxo-6,11-dihydro-5H-indeno[1,2-c]isoquinolin-3-yl)amino]-3-oxopropanoate], with 0.
As for `CC(C)(C)OC(=O)NCCCn1c2c(c3ccc(NC(=O)CCCC(=O)O)cc3c1=O)C(=O)c1ccccc1-2` [Compound 30 of (B), 5-[(6-(3-((tert-Butoxycarbonyl)amino)propyl)-5,11-dioxo-6,11-dihydro-5H-indeno[1,2-c]isoquinolin-3-yl)amino]-5-oxopentanoic Acid], the “Top1 … to Top1 inhibition” value at human recombinant Top1 is 0. Further, at recombinant human Tdp1, the 50% inhibitory concentration (IC50) is > 111 µM.
As to `CC(C)(C)OC(=O)NCCCn1c2c(c3ccc(NCC(=O)O)cc3c1=O)C(=O)c1ccccc1-2` [Compound 42 of (B), 2-((6-(3-((tert-Butoxycarbonyl)amino)propyl)-5,11-dioxo-6,11-dihydro-5H-indeno[1,2-c]isoquinolin-3-yl)amino)acetic Acid], at human recombinant Top1, the “Top1 … to Top1 inhibition” value came to 0. Moreover, at recombinant human Tdp1, the “Tdp1 inhibitory activity (in words)” value was “inactivity”.
Turning to `Cn1c2c(c3ccc(NCC(=O)O)cc3c1=O)C(=O)c1ccccc1-2` [Compound 41 of (B), 2-[(6-Methyl-5,11-dioxo-6,11-dihydro-5H-indeno[1,2-c]isoquinolin-3-yl)-amino]acetic Acid], the “Top1 … to Top1 inhibition” value at human recombinant Top1 is listed as 0. The “Tdp1 inhibitory activity (in words)” value at recombinant human Tdp1 (listed as 41) was “inactivity”.
As to `O=C1c2ccccc2-c2c1c1ccccc1c(=O)n2CCCl` [Compound 30, 6-(2-Chloroethyl)-5H-indeno[1,2-c]isoquinoline-5,11(6H)-dione], on recombinant human Tdp1, the “Tdp1 inhibitory activity (in words)” value was “inactive”.
Regarding `N#Cc1ccc2c3c(n(CCCn4ccnc4)c(=O)c2c1)-c1ccccc1C3=O` [Compound 72], at human recombinant Top1, the “Top1 … to Top1 inhibition” value is “++”. Besides, the half-maximal inhibitory concentration (IC50) on recombinant human Tdp1 is > 111 µM.
On to `Cl.NCCCn1c2c(c3ccc(NC(=O)CCCCC(=O)O)cc3c1=O)C(=O)c1ccccc1-2` [Compound 36 of (B), 6-[(6-(3-Aminopropyl)-5,11-dioxo-6,11-dihydro-5H-indeno[1,2-c]isoquinolin-3-yl)amino]-6-oxohexanoic Acid Hydrochloride], for which the “Top1 … to Top1 inhibition” value at human recombinant Top1 was “+”.
As to `COC(=O)CCC(=O)Nc1ccc2c3c(n(CCCNC(=O)OC(C)(C)C)c(=O)c2c1)-c1ccccc1C3=O` [Compound 19 of (B), Methyl 4-[(6-(3-((tert-Butoxycarbonyl)amino)propyl)-5,11-dioxo-6,11-dihydro-5H-indeno[1,2-c]isoquinolin-3-yl)amino]-4-oxobutanoate], at human recombinant Top1, the “Top1 … to Top1 inhibition” value stood at 0. In addition, at recombinant human Tdp1, the 50% inhibitory concentration (IC50) is > 111 µM.
In the case of `COC(=O)CC(=O)Nc1ccc2c3c(n(CCCNC(=O)OC(C)(C)C)c(=O)c2c1)-c1ccccc1C3=O` [Compound 18 of (B), Methyl 3-[(6-(3-((tert-Butoxycarbonyl)amino)propyl)-5,11-dioxo-6,11-dihydro-5H-indeno[1,2-c]isoquinolin-3-yl)amino]-3-oxopropanoate], the “Top1 … to Top1 inhibition” value at human recombinant Top1 worked out at 0. The IC50 on recombinant human Tdp1 is > 111 µM.
As to `COC(=O)CCC(=O)Nc1ccc2c3c(n(C)c(=O)c2c1)-c1ccccc1C3=O` [Compound 11 of (B), Methyl 4-[(6-Methyl-5,11-dioxo-6,11-dihydro-5H-indeno[1,2-c]isoquinolin-3-yl)amino]-4-oxobutanoate], the “Top1 … to Top1 inhibition” value on human recombinant Top1 was “(+)”.
Regarding `Cl.NCCCn1c2c(c3ccc(NC(=O)CCC(=O)O)cc3c1=O)C(=O)c1ccccc1-2` [Compound 34 of (B), 4-[(6-(3-Aminopropyl)-5,11-dioxo-6,11-dihydro-5H-indeno[1,2-c]isoquinolin-3-yl)amino]-4-oxobutanoic Acid Hydrochloride], the “Top1 … to Top1 inhibition” value on human recombinant Top1 was “+”.
In the case of `CCOC(=O)CNc1ccc2c3c(n(C)c(=O)c2c1)-c1ccccc1C3=O` [Compound 38 of (B), Ethyl 2-[(6-Methyl-5,11-dioxo-6,11-dihydro-5H-indeno[1,2-c]isoquinolin-3-yl)amino]acetate], the “Top1 … to Top1 inhibition” value at human recombinant Top1 is reported as 0. The “Tdp1 inhibitory activity (in words)” value on recombinant human Tdp1 (listed as 38) was “inactivity”.
For the compound `COC(=O)CCC(=O)Nc1ccc2c3c(n(CCCN)c(=O)c2c1)-c1ccccc1C3=O` [Compound 24 of (B), Methyl 4-[(6-(3-Aminopropyl)-5,11-dioxo-6,11-dihydro-5H-indeno[1,2-c]isoquinolin-3-yl)amino]-4-oxobutanoate], on human recombinant Top1, the “Top1 … to Top1 inhibition” value was “(+)”.
Take `COc1ccc2c(c1)-c1c(c3ccc([N+](=O)[O-])cc3c(=O)n1CCCN1CCOCC1)C2=O` [Compound 53 of (B), 8-Methoxy-6-(3-morpholinopropyl)-3-nitro-5H-indeno[1,2-c]isoquinoline-5,11(6H)-dione]: the “Top1 … to Top1 inhibition” value on human recombinant Top1 was “++”. Moreover, the “Tdp1 inhibitory activity (in words)” value at recombinant human Tdp1 is “very weak or inactive”.

Values taken from patent US9402842B2, “Synthesis and use of dual tyrosyl-DNA phosphodiesterase I (Tdp1)—topoisomerase I (Top1) inhibitors” (Purdue Research Foundation, priority 2012, dated 2016).
